Results reported in a compilation of properties of binary mixtures (doi:10.1039/c6ra15476j).

Assay: xn = mol fraction of the nth substance listed
Details: 100 kPa

CC(=O)c1ccccc1 + CC[n+]1ccn(C)c1.F[B-](F)(F)F
Details	speed of sound, 293.15 K [m/s]	speed of sound, 303.15 K [m/s]	speed of sound, 313.15 K [m/s]	speed of sound, 323.15 K [m/s]	speed of sound, 333.15 K [m/s]	viscosity, 293.15 K [mPa·s]	viscosity, 303.15 K [mPa·s]	viscosity, 313.15 K [mPa·s]	viscosity, 323.15 K [mPa·s]	viscosity, 333.15 K [mPa·s]
x1 = 0.0416	1640	1608	1581	1555	–	32.1	21.2	15.4	11.6	–
x1 = 0.094	1638	–	1572	–	–	25.5	–	12.3	–	–
x1 = 0.195	1628	1591	1560	1530	1502	21.7	14.3	10.9	8.1	7.2
x1 = 0.2999	–	1581	1550	1519	1490	–	12.9	9.5	7.3	5.8
x1 = 0.4003	–	1571	1538	–	–	–	11	8.1	–	–
x1 = 0.4989	1598	–	1527	–	1462	12.3	–	6	–	3.49
x1 = 0.5979	1583	1546	1511	1477	1442	8.7	6.5	5.2	4.14	3.39
x1 = 0.7005	1564	1528	1491	1457	1422	6.8	4.97	3.84	3.1	2.58
x1 = 0.8007	1543	1507	1472	1437	1400	4.74	3.61	3.09	2.36	2
x1 = 0.8918	1522	1485	–	1413	–	3.2	2.56	–	1.76	–
x1 = 0.9498	1509	1471	–	1398	–	2.45	2.03	–	1.42	–
x1 = 1	1497	1460	1423	1387	–	1.91	1.65	1.37	1.17	–

CCCC[n+]1ccn(C)c1.F[P-](F)(F)(F)(F)F + CC(=O)c1ccccc1
x2 = 0
Details	viscosity [mPa·s]
293.15 K	293
303.15 K	162
323.15 K	62
333.15 K	42.3

CCOS(=O)(=O)[O-].CC[n+]1ccn(C)c1 + CC(=O)c1ccccc1
x2 = 0
Details	speed of sound [m/s]	viscosity [mPa·s]
293.15 K	1695	98
303.15 K	1670	60
323.15 K	1623	27.9

CC(=O)c1ccccc1 + CCOS(=O)(=O)[O-].CC[n+]1ccn(C)c1
Details	speed of sound, 293.15 K [m/s]	speed of sound, 303.15 K [m/s]	speed of sound, 313.15 K [m/s]	speed of sound, 323.15 K [m/s]	speed of sound, 333.15 K [m/s]	viscosity, 293.15 K [mPa·s]	viscosity, 303.15 K [mPa·s]	viscosity, 313.15 K [mPa·s]	viscosity, 323.15 K [mPa·s]	viscosity, 333.15 K [mPa·s]
x1 = 0.0505	1691	1663	1637	1611	–	68	44	29	20.6	–
x1 = 0.0997	1684	1656	1628	1601	–	56	35	23.9	17.1	–
x1 = 0.2	1669	–	1610	1581	1521	40	–	18	13.1	11.9
x1 = 0.3008	1652	1621	1591	–	1503	30.2	21.3	14.5	–	9.6
x1 = 0.4002	1634	–	1571	1540	1485	22.6	–	11.9	9.3	8.3
x1 = 0.5006	1615	1583	1550	1518	–	14.9	11.8	9.8	8	6.8
x1 = 0.5999	1596	1562	1529	–	1448	10.1	8.4	7.2	–	4.9
x1 = 0.6921	1577	1542	–	1473	1428	6.9	6.6	–	3.4	3.6
x1 = 0.7973	–	–	1481	1446	1404	–	–	4.6	2.19	1.86
x1 = 0.8999	1526	1489	–	–	1379	3.7	2.88	–	–	1.66
x1 = 0.9502	1511	–	–	1402	1365	3.04	–	–	1.68	1.46
x1 = 1	1497	–	–	–	1352	1.91	–	–	–	1.02

CC[n+]1ccn(C)c1.F[B-](F)(F)F + CC(=O)c1ccccc1
x2 = 0
Details	speed of sound [m/s]	viscosity [mPa·s]
303.15 K	1618	28.2
313.15 K	1595	20
323.15 K	1572	14.9
333.15 K	1550	11.5

CC(=O)c1ccccc1 + CCCC[n+]1ccn(C)c1.F[P-](F)(F)(F)(F)F
viscosity [mPa·s]
Details	293.15 K	303.15 K	313.15 K	323.15 K	333.15 K
x1 = 0.0504	176	89	62	41	27.6
x1 = 0.0913	129	68	45.8	–	–
x1 = 0.1983	88	48.5	35	26.5	18.6
x1 = 0.2999	81	–	32.3	23.2	–
x1 = 0.3908	73	40.9	28.3	–	14.2
x1 = 0.4973	60	32.4	–	15.2	10.2
x1 = 0.5999	–	22.9	–	11.6	9.3
x1 = 0.697	35.6	18.5	12.3	–	8.3
x1 = 0.7999	28.2	14.3	8	–	4.67
x1 = 0.9002	16.2	7.7	5.6	4.34	–
x1 = 0.95	8.4	4.64	3.57	–	1.62
x1 = 1	1.91	1.65	1.37	1.17	–
